Measured values published in PMC9841524, “Structure-Based Rational Design of Small α-Helical Peptides with Broad-Spectrum Activity against Multidrug-Resistant Pathogens” (Journal of Medicinal Chemistry, 2022).
Like-named read-outs stand apart in the source and are kept apart here. Where no end group is shown, it is not given here.

Legend:
[1] = tested on: P. aeruginosa (ATCC 27883); experiment: MIC, standard microtiter dilution (CLSI); assay type: cell-based, Pseudomonas aeruginosa; details: broth microdilution (CLSI), CAMHB, 37 °C, 24 h
Method in brief: (§1)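 Broth microdilution per CLSI: overnight cultures diluted in cation-adjusted Mueller Hinton Broth to 10^6 CFU/mL, mixed with 2-fold serial peptide dilutions, incubated 37 °C for 24 h. MIC = lowest peptide concentration inhibiting growth. Three independent assays in triplicate.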

[2] = tested on: K. pneumonia (ATCC BAA-2470); details: Gram-negative, carbapenem-resistant; CLSI microdilution, CAMHB, 37 °C, 24 h; highest MIC of three independent experiments in triplicate
Method in brief: as §1

[3] = tested on: S. pneumoniae (ATCC 49619); details: Gram-positive; CLSI microdilution, CAMHB + 2.5% lysed horse blood, 37 °C, 24 h; highest MIC of three independent experiments in triplicate
Method in brief: as §1

E. coli (ATCC BAA-2452) = details: Gram-negative, NDM-1; CLSI microdilution, CAMHB, 37 °C, 24 h; highest MIC of three independent experiments in triplicate
Method in brief: as §1

[4] = tested on: S. pneumoniae (ATCC 700677); details: Gram-positive, multi-drug resistant (penicillin, tetracycline, erythromycin); CAMHB + 2.5% lysed horse blood, 37 °C, 24 h; highest MIC of three independent experiments in triplicate
Method in brief: as §1

[5] = tested on: Klebsiella pneumonia (ATCC 13883)
Method in brief: as §1

[6] = tested on: A. baumannii (ATCC BAA1605); details: Gram-negative, footnote e ciprofloxacin (MDR in Table S3); CLSI microdilution, CAMHB, 37 °C, 24 h; highest MIC of three independent experiments in triplicate
Method in brief: as §1

[7] = tested on: P. aeruginosa (ATCC 10145)
Method in brief: as §1

[8] = tested on: Bacillus subtilis (ATCC 6633); details: ATCC 6633, 24 h
Method in brief: as §1

E. coli (ATCC 25922) = details: for MIC, E. coli (ATCC 25922): broth microdilution (CLSI), CAMHB, 37 °C, 24 h
Method in brief: as §1

MRSA (ATCC BAA-1556) = details: for MIC, MRSA (ATCC BAA-1556), Control: MH media without salt ions or serum; for MIC, MRSA (ATCC BAA-1556), Control / MIC, MRSA (ATCC BAA-1556), MgCl2 / MIC, MRSA (ATCC BAA-1556), CaCl2 / MIC, MRSA (ATCC BAA-1556), KCl / MIC, MRSA (ATCC BAA-1556), NH4Cl / MIC, MRSA (ATCC BAA-1556), NaCl / MIC, MRSA (ATCC BAA-1556), FBS (25%): three independent experiments in triplicate; for MIC, MRSA (ATCC BAA-1556): broth microdilution (CLSI), CAMHB, 37 °C, 24 h; for MIC, MRSA (ATCC BAA-1556), MgCl2: media with 1 mM MgCl2; for MIC, MRSA (ATCC BAA-1556), CaCl2: media with 2 mM CaCl2; for MIC, MRSA (ATCC BAA-1556), KCl: media with 4.5 mM KCl; for MIC, MRSA (ATCC BAA-1556), NH4Cl: media with 6 mM NH4Cl; for MIC, MRSA (ATCC BAA-1556), NaCl: media with 150 mM NaCl; for MIC, MRSA (ATCC BAA-1556), FBS (25%): media with 25% fetal bovine serum
Method in brief: as §1

[9] = tested on: nonresistant and MDR S. pneumoniae; details: Table 2
Method in brief: as §1

[10] = tested on: P. aeruginosa (ATCC BAA-1744); details: Gram-negative, resistant strain (marked a; imipenem resistant in Table S3); CLSI microdilution, CAMHB, 37 °C, 24 h; highest MIC of three independent experiments in triplicate
Method in brief: as §1

E. faecalis (ATCC 29212) = tested on: E. faecalis (ATCC 29212)
Method in brief: as §1

[11] = tested on: Bacillus cereus (ATCC 13061)
Method in brief: as §1

[12] = 10^6 CFU/mL, highest MIC of three independent experiments in triplicate
[13] = Gram-negative, CLSI microdilution, CAMHB, 37 °C, 24 h, highest MIC of three independent experiments in triplicate
[14] = media with 4.5 mM KCl, three independent experiments in triplicate
[15] = media with 6 mM NH4Cl, three independent experiments in triplicate
[16] = MH media without salt ions or serum, three independent experiments in triplicate
[17] = Gram-positive, CLSI microdilution, CAMHB, 37 °C, 24 h, highest MIC of three independent experiments in triplicate

KWLKKWLKWWKK-NH2 [8b]
3.53 µM: MIC, P. aeruginosa (ATCC 27883) ([1]; value in parentheses (μM)) | MIC, E. coli (ATCC 25922) (E. coli (ATCC 25922); value in parentheses (μM))
6.2 µg/mL: MIC, P. aeruginosa (ATCC 27883) [1, 12] | MIC, E. coli (ATCC BAA-2452) (E. coli (ATCC BAA-2452)) | MIC, P. aeruginosa (ATCC 10145) ([7]; ATCC 10145, 24 h) | MIC, E. coli (ATCC 25922), Control (E. coli (ATCC 25922); ATCC 25922, 24 h) | MIC, E. coli (ATCC 25922) (E. coli (ATCC 25922); [12]) | MIC, MRSA (ATCC BAA-1556), MgCl2 (MRSA (ATCC BAA-1556)) | MIC, MRSA (ATCC BAA-1556), CaCl2 (MRSA (ATCC BAA-1556)) | MIC, MRSA (ATCC BAA-1556), KCl (MRSA (ATCC BAA-1556)) | MIC, MRSA (ATCC BAA-1556), NH4Cl (MRSA (ATCC BAA-1556)) | MIC, P. aeruginosa (ATCC BAA-1744) [10] | MIC, E. faecalis (ATCC 29212) (E. faecalis (ATCC 29212); ATCC 29212, 24 h)
3.1 µg/mL: MIC, A. baumannii (ATCC BAA1605) [6] | MIC, Bacillus subtilis (ATCC 6633) [8] | MIC, MRSA (ATCC BAA-1556), Control (MRSA (ATCC BAA-1556)) | MIC, MRSA (ATCC BAA-1556) (MRSA (ATCC BAA-1556); [12]) | MIC, Bacillus cereus (ATCC 13061) ([11]; ATCC 13061, 24 h)
12.5 µg/mL: MIC, K. pneumonia (ATCC BAA-2470) [2] | MIC, S. pneumoniae (ATCC 49619) [3] | MIC, S. pneumoniae (ATCC 700677) [4] | MIC, Klebsiella pneumonia (ATCC 13883) [5, 13] | MIC, E. coli (ATCC 25922), KCl (E. coli (ATCC 25922); [14]) | MIC, E. coli (ATCC 25922), NH4Cl (E. coli (ATCC 25922); [15]) | MIC, MRSA (ATCC BAA-1556), NaCl (MRSA (ATCC BAA-1556)) | MIC, MRSA (ATCC BAA-1556), FBS (25%) (MRSA (ATCC BAA-1556)) | MIC, nonresistant and MDR S. pneumoniae [9]
25 µg/mL: MIC, E. coli (ATCC 25922), CaCl2 (E. coli (ATCC 25922); ATCC 25922, 24 h) | MIC, E. coli (ATCC 25922), FBS (25%) (E. coli (ATCC 25922); ATCC 25922, 24 h) | MIC, E. coli (ATCC 25922), MgCl2 (E. coli (ATCC 25922); ATCC 25922, 24 h) | MIC, E. coli (ATCC 25922), NaCl (E. coli (ATCC 25922); ATCC 25922, 24 h)
1.76 µM: MIC, MRSA (ATCC BAA-1556) (MRSA (ATCC BAA-1556); value in parentheses (μM))

RWIRRWIRWWRR-NH2 [7a]
50 µg/mL: MIC, E. coli (ATCC 25922), FBS (25%) (E. coli (ATCC 25922); ATCC 25922, 24 h)
12.5 µg/mL: MIC, K. pneumonia (ATCC BAA-2470) [2] | MIC, E. coli (ATCC BAA-2452) (E. coli (ATCC BAA-2452)) | MIC, A. baumannii (ATCC BAA1605) [6] | MIC, P. aeruginosa (ATCC 10145) [7, 13] | MIC, E. coli (ATCC 25922), MgCl2 (E. coli (ATCC 25922); media with 1 mM MgCl2, three independent experiments in triplicate) | MIC, E. coli (ATCC 25922), CaCl2 (E. coli (ATCC 25922); media with 2 mM CaCl2, three independent experiments in triplicate) | MIC, E. coli (ATCC 25922), KCl (E. coli (ATCC 25922); [14]) | MIC, E. coli (ATCC 25922), NH4Cl (E. coli (ATCC 25922); [15]) | MIC, MRSA (ATCC BAA-1556), KCl (MRSA (ATCC BAA-1556)) | MIC, MRSA (ATCC BAA-1556), NaCl (MRSA (ATCC BAA-1556)) | MIC, P. aeruginosa (ATCC BAA-1744) [10] | MIC, E. faecalis (ATCC 29212) (E. faecalis (ATCC 29212); [17]) | MIC, Bacillus cereus (ATCC 13061) [11, 17]
25 µg/mL: MIC, S. pneumoniae (ATCC 700677) [4] | MIC, Klebsiella pneumonia (ATCC 13883) ([5]; ATCC 13883, 24 h) | MIC, E. coli (ATCC 25922), NaCl (E. coli (ATCC 25922); ATCC 25922, 24 h) | MIC, MRSA (ATCC BAA-1556), FBS (25%) (MRSA (ATCC BAA-1556))
3.22 µM: MIC, P. aeruginosa (ATCC 27883) ([1]; value in parentheses (μM)) | MIC, E. coli (ATCC 25922) (E. coli (ATCC 25922); value in parentheses (μM)) | MIC, MRSA (ATCC BAA-1556) (MRSA (ATCC BAA-1556); value in parentheses (μM))
6.2 µg/mL: MIC, P. aeruginosa (ATCC 27883) [1, 12] | MIC, Bacillus subtilis (ATCC 6633) [8] | MIC, E. coli (ATCC 25922), Control (E. coli (ATCC 25922); [16]) | MIC, E. coli (ATCC 25922) (E. coli (ATCC 25922); [12]) | MIC, MRSA (ATCC BAA-1556), Control (MRSA (ATCC BAA-1556)) | MIC, MRSA (ATCC BAA-1556) (MRSA (ATCC BAA-1556); [12]) | MIC, MRSA (ATCC BAA-1556), MgCl2 (MRSA (ATCC BAA-1556)) | MIC, MRSA (ATCC BAA-1556), CaCl2 (MRSA (ATCC BAA-1556)) | MIC, MRSA (ATCC BAA-1556), NH4Cl (MRSA (ATCC BAA-1556))

RWLRRWLRWWRR-NH2 [8a]
50 µg/mL: MIC, E. coli (ATCC 25922), MgCl2 (E. coli (ATCC 25922); ATCC 25922, 24 h) | MIC, MRSA (ATCC BAA-1556), FBS (25%) (MRSA (ATCC BAA-1556))
6.2 µg/mL: MIC, A. baumannii (ATCC BAA1605) [6] | MIC, P. aeruginosa (ATCC 10145) ([7]; ATCC 10145, 24 h) | MIC, MRSA (ATCC BAA-1556), Control (MRSA (ATCC BAA-1556)) | MIC, MRSA (ATCC BAA-1556) (MRSA (ATCC BAA-1556); [12]) | MIC, MRSA (ATCC BAA-1556), MgCl2 (MRSA (ATCC BAA-1556)) | MIC, MRSA (ATCC BAA-1556), CaCl2 (MRSA (ATCC BAA-1556)) | MIC, MRSA (ATCC BAA-1556), NH4Cl (MRSA (ATCC BAA-1556)) | MIC, Bacillus cereus (ATCC 13061) ([11]; ATCC 13061, 24 h)
3.1 µg/mL: MIC, Bacillus subtilis (ATCC 6633) [8]
25 µg/mL: MIC, E. coli (ATCC 25922), CaCl2 (E. coli (ATCC 25922); ATCC 25922, 24 h) | MIC, E. coli (ATCC 25922), KCl (E. coli (ATCC 25922); ATCC 25922, 24 h) | MIC, E. coli (ATCC 25922), NH4Cl (E. coli (ATCC 25922); ATCC 25922, 24 h)
> 50 µg/mL: MIC, E. coli (ATCC 25922), FBS (25%) (E. coli (ATCC 25922); ATCC 25922, 24 h) | MIC, E. coli (ATCC 25922), NaCl (E. coli (ATCC 25922); ATCC 25922, 24 h)
12.5 µg/mL: MIC, P. aeruginosa (ATCC 27883) [1, 12] | MIC, K. pneumonia (ATCC BAA-2470) [2] | MIC, E. coli (ATCC BAA-2452) (E. coli (ATCC BAA-2452)) | MIC, S. pneumoniae (ATCC 700677) [4] | MIC, Klebsiella pneumonia (ATCC 13883) [5, 13] | MIC, E. coli (ATCC 25922), Control (E. coli (ATCC 25922); [16]) | MIC, E. coli (ATCC 25922) (E. coli (ATCC 25922); [12]) | MIC, MRSA (ATCC BAA-1556), KCl (MRSA (ATCC BAA-1556)) | MIC, MRSA (ATCC BAA-1556), NaCl (MRSA (ATCC BAA-1556)) | MIC, P. aeruginosa (ATCC BAA-1744) [10] | MIC, E. faecalis (ATCC 29212) (E. faecalis (ATCC 29212); [17])
6.49 µM: MIC, P. aeruginosa (ATCC 27883) ([1]; value in parentheses (μM)) | MIC, E. coli (ATCC 25922) (E. coli (ATCC 25922); value in parentheses (μM))
3.22 µM: MIC, MRSA (ATCC BAA-1556) (MRSA (ATCC BAA-1556); value in parentheses (μM))
